Active and inactive are the calls of the source. The rule behind the calls is not given here.
What was measured:
MC-38 [1] = test: Antitumor activity against mouse MC38 cells allografted in C57BL/6J mouse assessed as increase in ratio of M1 to M2 cells at 20 mg/kg, po administered daily for 20 days; type: functional, organism-based; conditions: time 20.0 day
MC-38 [2] = test: Antitumor activity against mouse MC38 cells allografted in C57BL/6J mouse assessed as decrease in spleen index at 20 to 100 mg/kg, po administered daily for 20 days; type: functional, organism-based; conditions: dose 20-100 mg/kg, time 20.0 day
MC-38 [3] = test: Antitumor activity against mouse MC38 cells allografted in C57BL/6J mouse assessed as upregulation of NKT-cells in CD45+ cells at 100 mg/kg, po administered daily for 20 days (reference value: […]); type: functional; conditions: time 20 day
[4] = molecular target: T1, Ubiquitin carboxyl-terminal hydrolase 7 (Homo sapiens, UniProt Q93009); test: Inhibition of full-length USP7 (unknown origin) using ubiquitin-rhodamine 110 as substrate preincubated for 30 mins followed by substrate addition and measured after 2 hrs by microplate spectrophotometer analysis
MC-38 [5] = test: Antitumor activity against mouse MC38 cells allografted in C57BL/6J mouse assessed as increase in TNFalpha level at 20 mg/kg, po administered daily for 20 days by ELISA (reference value: […]); type: functional; conditions: time 20 day
MC-38 [6] = test: Antitumor activity against mouse MC38 cells allografted in C57BL/6J mouse assessed as upregulation of NK-cells in CD45+ cells at 20 mg/kg, po administered daily for 20 days (reference value: 3.7%); type: functional; conditions: time 20 day
MC-38 [7] = test: Antitumor activity against mouse MC38 cells allografted in C57BL/6J mouse assessed as upregulation of NKT-cells in CD45+ cells at 20 mg/kg, po administered daily for 20 days (reference value: […]); type: functional; conditions: time 20 day
MC-38 [8] = test: Antitumor activity against mouse MC38 cells allografted in C57BL/6J mouse assessed as tumor growth inhibition at 20 mg/kg, po administered once daily for 21 days; type: functional; conditions: MC-38, 504 h, time 21 day, read-out: TGI
MC-38 [9] = test: Antitumor activity against mouse MC38 cells allografted in C57BL/6J mouse assessed as upregulation of CD8+ T-cells in T-lymphocytes at 100 mg/kg, po administered daily for 20 days (reference value: 5.2%); type: functional; conditions: time 20 day
MC-38 [10] = test: Antitumor activity against mouse MC38 cells allografted in C57BL/6J mouse assessed as increase in M1 cells at 20 mg/kg, po administered daily for 20 days; type: functional, organism-based; conditions: time 20.0 day
MC-38 [11] = test: Antitumor activity against mouse MC38 cells allografted in C57BL/6J mouse assessed as downregulation of Treg in CD4+ T-cells at 100 mg/kg, po administered daily for 20 days (reference value: 10.1%); type: functional; conditions: time 20 day
MC-38 [12] = test: Antitumor activity against mouse MC38 cells allografted in C57BL/6J mouse assessed as increase in INFalpha level at 100 mg/kg, po administered daily for 20 days by ELISA; type: functional, organism-based; conditions: time 20.0 day
MC-38 [13] = test: Antitumor activity against mouse MC38 cells allografted in C57BL/6J mouse assessed as increase in IL-2 level at 100 mg/kg, po administered daily for 20 days by ELISA; type: functional, organism-based; conditions: time 20.0 day
MC-38 [14] = test: Antitumor activity against mouse MC38 cells allografted in C57BL/6J mouse assessed as tumor growth inhibition at 100 mg/kg, po administered once daily for 21 days; type: functional; conditions: MC-38, 504 h, time 21 day, read-out: TGI
[15] = molecular target: T1, Ubiquitin carboxyl-terminal hydrolase 7; test: Binding affinity to human USP7 (208 to 560 residues) by SPR method
MC-38 [16] = test: Antitumor activity against mouse MC38 cells allografted in C57BL/6J mouse assessed as decrease in M2 cells at 20 mg/kg, po administered daily for 20 days; type: functional, organism-based; conditions: time 20.0 day
MC-38 [17] = test: Antitumor activity against mouse MC38 cells allografted in C57BL/6J mouse assessed as upregulation of NK-cells in CD45+ cells at 100 mg/kg, po administered daily for 20 days (reference value: 3.7%); type: functional; conditions: time 20 day
MC-38 [18] = test: Antitumor activity against mouse MC38 cells allografted in C57BL/6J mouse assessed as downregulation of MDCS in CD45+ […] at 100 mg/kg, po administered daily for 20 days (reference value: 27.9%); type: functional; conditions: time 20 day
MC-38 [19] = test: Antitumor activity against mouse MC38 cells allografted in po dosed C57BL/6J mouse assessed as reduction in tumor growth administered once daily for 21 days; type: functional, organism-based; conditions: time 21.0 day, DDE = dose-dependent effect
MC-38 [20] = test: Antitumor activity against mouse MC38 cells allografted in C57BL/6J mouse assessed as increase in TNFalpha level at 100 mg/kg, po administered daily for 20 days by ELISA (reference value: […]); type: functional; conditions: time 20 day

T1 sequence (Q93009 whole entry): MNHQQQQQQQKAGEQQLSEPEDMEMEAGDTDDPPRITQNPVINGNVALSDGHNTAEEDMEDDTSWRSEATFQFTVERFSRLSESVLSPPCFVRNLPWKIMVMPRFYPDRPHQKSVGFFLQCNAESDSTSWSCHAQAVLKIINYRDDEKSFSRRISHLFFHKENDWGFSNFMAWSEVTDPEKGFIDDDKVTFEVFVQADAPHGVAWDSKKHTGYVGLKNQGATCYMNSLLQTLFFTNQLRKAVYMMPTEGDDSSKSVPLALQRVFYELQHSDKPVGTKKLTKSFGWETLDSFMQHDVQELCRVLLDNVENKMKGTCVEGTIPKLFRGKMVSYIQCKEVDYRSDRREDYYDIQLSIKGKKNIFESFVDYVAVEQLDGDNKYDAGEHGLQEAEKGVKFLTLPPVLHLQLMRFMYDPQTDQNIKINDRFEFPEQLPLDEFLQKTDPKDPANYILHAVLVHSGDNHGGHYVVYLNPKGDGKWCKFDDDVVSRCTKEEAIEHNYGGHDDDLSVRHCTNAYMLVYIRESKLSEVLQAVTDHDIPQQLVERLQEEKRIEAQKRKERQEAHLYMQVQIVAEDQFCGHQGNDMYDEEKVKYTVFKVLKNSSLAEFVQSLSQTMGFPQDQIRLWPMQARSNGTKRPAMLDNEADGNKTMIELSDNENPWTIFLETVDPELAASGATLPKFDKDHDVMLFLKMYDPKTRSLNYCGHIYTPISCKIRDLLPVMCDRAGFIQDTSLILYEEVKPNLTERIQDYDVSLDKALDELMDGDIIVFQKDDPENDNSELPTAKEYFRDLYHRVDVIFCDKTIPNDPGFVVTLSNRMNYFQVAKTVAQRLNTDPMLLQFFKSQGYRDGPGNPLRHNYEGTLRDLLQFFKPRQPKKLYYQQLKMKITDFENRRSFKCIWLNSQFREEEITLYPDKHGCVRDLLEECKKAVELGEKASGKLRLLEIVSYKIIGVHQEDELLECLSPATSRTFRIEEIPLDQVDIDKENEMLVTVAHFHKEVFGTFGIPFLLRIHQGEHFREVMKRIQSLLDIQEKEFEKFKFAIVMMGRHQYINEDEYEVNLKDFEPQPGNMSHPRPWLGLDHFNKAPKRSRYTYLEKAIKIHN

Cn1nc2c(=O)n(CC3(O)CCN(Cc4ccc(-c5ccco5)cc4Cl)CC3)cnc2c1-c1ccc(F)cc1
Activity (MC-38 [1]): Active | Activity (MC-38 [2]): Active | Activity (MC-38 [3]): 18% | IC50 [4]: 64.5 nM | Activity (MC-38 [5]): 2.66 pg/mL | Activity (MC-38 [6]): 7.5% | Activity (MC-38 [7]): 9.8% | inhibition in vivo at 20 mg/kg (MC-38 [8]): 36.6% | Activity (MC-38 [9]): 9.9% | Activity (MC-38 [10]): Active | Activity (MC-38 [11]): 5.8% | Activity (MC-38 [12]): Active | Activity (MC-38 [13]): Active | inhibition in vivo at 100 mg/kg (MC-38 [14]): 74.2% | Kd [15]: 541 nM | Activity (MC-38 [16]): Active | Activity (MC-38 [17]): 12.2% | Activity (MC-38 [18]): 11.4% | Activity (MC-38 [19]): Dde | Activity (MC-38 [20]): 2.79 pg/mL

Source: ChEMBL document CHEMBL5150063, “Discovery of Orally Bioavailable N-Benzylpiperidinol Derivatives as Potent and Selective USP7 Inhibitors with In Vivo Antitumor Immunity Activity against Colon Cancer” (J Med Chem, 2022)
